Test results taken from ChEMBL document CHEMBL2074369, “Interactions of HIV protease inhibitors with a human organic cation transporter in a mammalian expression system” (Drug Metab Dispos, 2000).

Assays:
[1] = biological target: Solute carrier family 22 member 1, Homo sapiens (UniProt O15245); test: TP_TRANSPORTER: inhibition of TEA uptake (TEA: 10 uM) in OCT1-expressing HeLa cells
[2] = biological target: T1, Solute carrier family 22 member 1 (Rattus norvegicus, UniProt Q63089); test: TP_TRANSPORTER: uptake in OCT1-expressing HeLa cells; type: functional, cell-based; settings: human
T1 sequence (Q63089 whole entry): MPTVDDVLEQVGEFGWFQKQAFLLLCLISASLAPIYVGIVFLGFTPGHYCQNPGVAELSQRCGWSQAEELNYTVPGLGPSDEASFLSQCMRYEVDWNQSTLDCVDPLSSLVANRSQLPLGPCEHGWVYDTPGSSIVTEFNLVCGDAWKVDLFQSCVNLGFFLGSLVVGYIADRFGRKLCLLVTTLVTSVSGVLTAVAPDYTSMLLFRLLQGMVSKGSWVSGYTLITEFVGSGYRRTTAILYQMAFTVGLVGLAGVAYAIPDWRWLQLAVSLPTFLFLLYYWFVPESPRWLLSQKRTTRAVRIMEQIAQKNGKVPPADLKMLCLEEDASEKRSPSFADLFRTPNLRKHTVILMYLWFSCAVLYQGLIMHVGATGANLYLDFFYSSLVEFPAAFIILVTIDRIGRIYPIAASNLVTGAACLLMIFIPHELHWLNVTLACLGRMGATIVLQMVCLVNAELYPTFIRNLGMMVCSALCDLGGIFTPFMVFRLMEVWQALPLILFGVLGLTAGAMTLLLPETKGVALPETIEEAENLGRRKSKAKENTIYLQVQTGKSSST

Sequence of Solute carrier family 22 member 1, Homo sapiens (O15245 whole entry, looked up): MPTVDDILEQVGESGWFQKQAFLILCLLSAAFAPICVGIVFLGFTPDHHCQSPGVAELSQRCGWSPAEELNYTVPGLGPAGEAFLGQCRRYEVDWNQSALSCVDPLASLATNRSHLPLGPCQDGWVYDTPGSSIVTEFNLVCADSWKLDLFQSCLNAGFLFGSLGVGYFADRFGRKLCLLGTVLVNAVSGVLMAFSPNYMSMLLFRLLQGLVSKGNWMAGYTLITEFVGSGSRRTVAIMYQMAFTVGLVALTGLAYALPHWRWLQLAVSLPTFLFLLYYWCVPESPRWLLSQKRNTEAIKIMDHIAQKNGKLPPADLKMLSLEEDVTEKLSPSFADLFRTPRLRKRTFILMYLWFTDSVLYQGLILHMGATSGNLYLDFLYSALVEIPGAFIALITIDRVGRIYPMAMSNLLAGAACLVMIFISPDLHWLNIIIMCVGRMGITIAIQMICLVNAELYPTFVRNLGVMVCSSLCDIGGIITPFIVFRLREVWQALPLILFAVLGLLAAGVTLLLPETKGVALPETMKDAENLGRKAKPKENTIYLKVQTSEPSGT

SMILES	IC50 [1] [µM]	Activity [2]
CC(C)(C)NC(=O)[C@@H]1CN(Cc2cccnc2)CCN1C[C@@H](O)C[C@@H](Cc1ccccc1)C(=O)N[C@H]1c2ccccc2C[C@H]1O [INDINAVIR]	61.7	–
Cc1c(O)cccc1C(=O)N[C@@H](CSc1ccccc1)[C@H](O)CN1C[C@H]2CCCC[C@H]2C[C@H]1C(=O)NC(C)(C)C [NELFINAVIR]	21.8	–
CC(C)(C)NC(=O)[C@@H]1C[C@@H]2CCCC[C@@H]2CN1C[C@@H](O)[C@H](Cc1ccccc1)NC(=O)[C@H](CC(N)=O)NC(=O)c1ccc2ccccc2n1 [SAQUINAVIR]	8.26	is not a substrate [-]
